Experimental data taken from patent publication US6632794B1, “Insulin-like growth factor agonist molecules” (Genentech, Inc., priority 1997, dated 2003).
Positions of bridges follow the written chain, without caps; N, C: chain ends. Residues, ends and D or L forms follow the SMILES beside them.

How the values were obtained:
[1] = target: T1, recombinant human (rh) IGFBP-1 (Homo sapiens, UniProt P08833); assay: ^125I-IGF-I competitive binding plate assay, IGFBP-1; conditions: FIG. 36
T1 sequence (P08833 26-259): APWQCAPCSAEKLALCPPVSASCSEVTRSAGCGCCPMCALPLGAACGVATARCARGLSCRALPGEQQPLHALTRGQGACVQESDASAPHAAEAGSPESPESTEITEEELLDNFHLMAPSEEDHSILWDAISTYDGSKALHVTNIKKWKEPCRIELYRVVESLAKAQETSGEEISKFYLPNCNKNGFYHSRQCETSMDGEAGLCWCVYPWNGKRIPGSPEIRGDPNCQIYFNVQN
Description: (§1) The mutant (Leu^24,Ala^31)hIGF-I was also tested for its ability to displace radio-labeled rhIGF-I off the IGFBPs in a competitive binding assay. This assay involves coating recombinant human (rh) IGFBP-1 or rhIGFBP-3 (160 ng/ml) onto 96-well plates overnight, blocking the plates for one hour with 0.5% BSA, adding rhIGF-I (250-0.08 ng/ml) or (Leu^24,Ala^31)hIGF-I for 1 hour, then adding 20,000 cpm of ^125I-IGF-I and incubating for 2 hours before washing and counting.
(§2) As an additional assay of peptide activity, several peptides were tested in an assay using ^125I-labeled IGF-I to measure inhibition of IGFBP binding, as described in Example 1 (Assay 3). Serial dilutions of peptide were added to an IGFBP-1 or an IGFBP-3 plate. Thereafter, ^125I-labeled IGF-I was added and the plates were incubated for 2 hours. The plates were then washed and counted to determine the amount of bound IGF-I.

IGFBP-3 [2] = target: T2, IGFBP-3 (Homo sapiens, UniProt P17936); assay: ^125I-IGF-I competitive binding plate assay, IGFBP-3; conditions: FIG. 35
T2 sequence (P17936 28-291): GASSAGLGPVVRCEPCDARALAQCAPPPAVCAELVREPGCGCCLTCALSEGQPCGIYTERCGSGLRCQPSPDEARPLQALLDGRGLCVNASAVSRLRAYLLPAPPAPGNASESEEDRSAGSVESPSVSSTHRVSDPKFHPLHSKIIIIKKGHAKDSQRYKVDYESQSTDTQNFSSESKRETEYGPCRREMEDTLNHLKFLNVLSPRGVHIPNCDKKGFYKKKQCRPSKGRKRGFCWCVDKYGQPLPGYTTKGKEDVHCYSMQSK
Description: as §1, §2

IGFBP-3 [3] = target: T2, IGFBP-3; assay: BIAcore competition assay, IGFBP-3 binding to immobilized IGF-I; conditions: for IGF-I Inhibition IC50 (mut)/IC50 (wt): bp3-01-ox variants by BIAcore, wt = bp3-01-ox
Description: A. BIAcore™ Competition Assay (for IGFBP-3 Binders)
IGF-I was immobilized on a dextran chip for inhibition assays using a BIAcore™ 2000 surface-plasmon-resonance device (BIAcore, Inc., Piscataway, N.J.) to measure free binding protein. […] Serial dilutions of peptide were mixed with a constant concentration (40 nM) of IGFBP-3. After incubation for >1 hour at room temperature, an aliquot of 20 μL was injected at a flow rate of 20 μL/min over the IGF-I chip. Following the injection, a response reading was taken to measure the relative amount of IGFBP-3 bound to the IGF-I.

IGFBP-1 [4] = target: T3, IGFBP-1 (Homo sapiens, UniProt P08833); assay: Biotin-BP plate (ELISA) assay, biotinylated IGFBP-1 binding to IGF-I; conditions: FIG. 33
T3 construct: biotin (chemical label, EZ-LINK NHS-SS-Biotin)
T3 sequence (P08833 26-259): T1 sequence (P08833 26-259)
Description: 1. Biotin-BP Assay (for IGFBP-1 Binders)
For inhibition of IGFBP-1 binding, IGFBP-1 (as well as IGFBP-3 as a control) were biotinylated as described above. MAXISORP™plates were coated and blocked as described above, using 2 μg/mL IGF-I. In a separate plate, serial dilutions of peptide were premixed with a constant concentration (20 nM) of biotinylated IGFBP-1. After 20 min. at room temperature, the mixture was added to the IGF-I plate. The peptide/IGFBP mix was then removed and the plate was washed ten times with PBS buffer containing 0.05% TWEEN-20™ surfactant. Bound biotin-IGFBP-1 was then detected using streptavidin-conjugated horse radish peroxidase, and a chromogenic substrate.
A second series of peptides made use of non-natural amino acids to probe whether other structural features such as an added methyl group at the alpha carbon, or an isomer (D-alanine) could affect peptide binding to IGFBP-1.
Substitutions at the N-terminus or C-terminus yielded affinity improvements. […] All of these peptides had similar or improved apparent affinity for IGFBP-1 as compared with bp1-01 and bp1-02 and are thus expected to increase the availability of IGF-I in an in vitro cell culture assay.

IGFBP-1 [5] = target: T3, IGFBP-1; assay: KIRA assay of IGF-I activity with IGF-I plus IGFBP-1 and peptide; type: cell-based; conditions: FIG. 37B
Description: (§3) C. In Vitro Activation (KIRA)
(§4) The ability of several synthetic peptides to block IGF-I binding to IGFBPs and release functional IGF-I was tested in a KIRA assay of IGF-I activity, as described in Example 1. Cells were treated with IGF-I alone, peptide alone, peptide plus IGF-I, IGF-I plus binding protein (IGFBP-1 or IGFBP-3), or IGF-I plus binding protein (IGFBP-1 or IGFBP-3) and peptide.

IGFBP-3 [6] = target: T2, IGFBP-3; assay: KIRA assay of IGF-I activity with IGF-I plus IGFBP-3 and peptide; type: cell-based
Description: as §3, §4
It is believed that this would drop to 30 uM with a 1:1 ratio.

IGFBP-3 [7] = target: T2, IGFBP-3; assay: BIAcore competition assay, IGFBP-3 binding to immobilized IGF-II; conditions: 20 nM IGFBP-3; approximately 1500 RU immobilized IGF-II; read-out: IC50, inhibition of IGFBP-3 binding to IGF-II (BIAcore)
Description: D. BIAcore™ Competition Assay (for IGFBP-3 Binders)
IGF-II was immobilized on a dextran chip for inhibition assays using a BIAcore™ 2000 surface-plasmon-resonance device (BIAcore, Inc., Piscataway, N.J.) to measure free binding protein. IGF-II was biotinylated as described above, and injected over a chip to which streptavidin had been coupled (BIAcore, Inc.) to give approximately 1500 RU of immobilized IGF-II. […] Serial dilutions of peptide were mixed with a constant concentration (20 nM) of IGFBP-3. After incubation for ≧1 hour at room temperature, an aliquot of 20 μl was injected at a flow rate of 20 μl/min over the IGF-II chip. Following the injection, a response reading was taken to measure the relative amount of IGFBP-3 bound to the IGF-II.

[8] = system: endogenous IGFBPs present in human serum; assay: Displacement of ^125I-IGF-I from IGFBPs in human serum (FPLC-SEC); type: binding; conditions: human serum; peptide at 0.2 mM
Description: To determine if the IGF mutant could displace IGF-I from endogenous IGFBPs present in human serum, the following experiment was performed. Radiolabeled rhIGF-I (^125-IGF-I) was incubated with normal human serum samples at a concentration of 33 ng/ml for 16 hr at 4° C. to allow for the formation of […] complexes. […] The samples (n=3) were then analyzed by FPLC size-exclusion chromatography (FPLC-SEC) to determine the relative size and amounts of the ^125I-IGF-I:IGFBP complexes.
Data are expressed as cpm per fraction (n=1).
This Example tests an IGFBP-3-specific peptide, BP15, for its ability to block the binding of ^125I-IGF-I in human serum. Human serum was incubated with ^125I-IGF-I±the peptide and the amount of tracer bound to IGFBPs via size-exclusion chromatography was measured.

[9] = 40 nM IGFBP-3, 400 to 800 RU immobilized IGF-I, read-out: BIAcore Assay IC50, inhibition of IGF-I binding to IGFBP-3

Structure (SMILES)	inhibition of ^125I-IGF-I binding to an IGFBP-1 coated plate [1]	inhibition of ^125I-IGF-I binding to an IGFBP-3 plate (IGFBP-3 [2])	IGF-I Inhibition IC50 (mut)/IC50 (wt) (IGFBP-3 [3])	inhibition of biotinylated IGFBP-1 binding to IGF-I plate (IGFBP-1 [4])	effect on IGF-I activity in KIRA with IGF-I plus IGFBP-1 (IGFBP-1 [5])	effect on IGF-I activity in KIRA with IGF-I plus IGFBP-3 (IGFBP-3 [6]; FIG. 37D)	IC50 (IGFBP-3 [7]) [nM]	IC50 (IGFBP-3 [3]; [9]) [nM]	IC50 (IGFBP-3 [3]; bp3-01-ox variants by BIAcore competition assay, read-out: IGF-I Inhibition IC50) [nM]	IC50 believed to result with a 1:1 ratio (KIRA) (IGFBP-3 [6]; IGFBP-3:IGF-1 1:1 ratio, not tested) [µM]	IC50 (IGFBP-3 [6]; IGFBP-3:IGF-1 at a 3:1 ratio, read-out: IC50 for blocking of IGFBP-3 (activation of the KIRA assay)) [µM]	decrease in ^125I-IGF-I associated with the 150-KD IGF/IGFBP-3/ALS complex [8] [%]	increase in the amount of free ^125I-IGF-I [8] [%]
CSCC[C@H](NC(=O)[C@H](CC(N)=O)NC(=O)[C@@H]1CSSC[C@H](NC(=O)[C@@H](NC(=O)[C@H](CCC(=O)O)NC(=O)[C@H](CCC(=O)O)NC(=O)[C@@H](N)CO)C(C)C)C(=O)N[C@@H](Cc2c[nH]c3ccccc23)C(=O)N2CCC[C@H]2C(=O)N[C@@H](C(C)C)C(=O)N[C@@H](C)C(=O)N[C@@H](CCC(=O)O)C(=O)N[C@@H](Cc2c[nH]c3ccccc23)C(=O)N[C@@H](Cc2ccc(O)cc2)C(=O)N[C@@H](CC(C)C)C(=O)N1)C(=O)N[C@@H](Cc1c[nH]c2ccccc12)C(=O)NCC(=O)O [BP3-01-ox] (H-SEEVCWPVAEWYLCNMWG-OH; disulfide 5-14; N-terminus and C-terminus assumed)	did not inhibit	inhibition	1	little or no inhibition	no significant effect	no significant effect	920						
CC[C@H](C)[C@@H]1NC(=O)[C@H](Cc2ccc(O)cc2)NC(=O)CNC(=O)[C@H](CCC(N)=O)NC(=O)[C@H](CC(=O)O)NC(=O)[C@H](Cc2c[nH]cn2)NC(=O)[C@H](CCCNC(=N)N)NC(=O)[C@H](CC(=O)O)NC(=O)[C@H](Cc2c[nH]c3ccccc23)NC(=O)[C@@H](NC(=O)[C@@H](NC(=O)[C@H](CCC(=O)O)NC(=O)[C@H](Cc2c[nH]c3ccccc23)NC(=O)[C@H](C)NC(=O)[C@@H](N)C(C)C)C(C)C)CSSC[C@@H](C(=O)N[C@H](C(=O)N[C@H](C(=O)N[C@@H](CC(=O)O)C(=O)N[C@@H](CO)C(=O)O)[C@@H](C)O)[C@@H](C)O)NC1=O [BP3-4D3.11] (H-VAWEVCWDRHDQGYICTTDS-OH; disulfide 6-16; N-terminus and C-terminus assumed)							1000	< 10000					
CC(C)C[C@@H]1NC(=O)[C@H](Cc2ccc(O)cc2)NC(=O)[C@H](Cc2c[nH]c3ccccc23)NC(=O)[C@H](CCC(=O)O)NC(=O)[C@H](C)NC(=O)[C@H](C(C)C)NC(=O)[C@@H]2CCCN2C(=O)[C@H](Cc2c[nH]c3ccccc23)NC(=O)[C@@H](NC(=O)[C@@H](NC(=O)[C@H](CCC(=O)O)NC(=O)[C@H](CCC(=O)O)NC(=O)[C@@H](N)CO)C(C)C)CSSC[C@@H](C(=O)N[C@@H](CC(N)=O)C(=O)O)NC1=O [BP15] (H-SEEVCWPVAEWYLCN-OH; disulfide 5-14; N-terminus and C-terminus assumed)			0.36				780	750	720	30	95	~42	59
CSCC[C@@H]1NC(=O)[C@H](Cc2c[nH]c3ccccc23)NC(=O)[C@@H]2CCCN2C(=O)CNC(=O)[C@H](CC(=O)O)NC(=O)[C@H](C)NC(=O)[C@@H](NC(=O)[C@@H](NC(=O)CNC(=O)[C@H](CCSC)NC(=O)[C@@H](N)CC(=O)O)C(C)C)CSSC[C@@H](C(=O)N[C@@H](CCC(=O)O)C(=O)N[C@@H](Cc2c[nH]c3ccccc23)C(=O)N[C@H](C(=O)N[C@@H](CCC(=O)O)C(=O)O)[C@@H](C)O)NC(=O)[C@H](C(C)C)NC(=O)[C@H](Cc2ccc(O)cc2)NC1=O [BP3-02-ox] (H-DMGVCADGPWMYVCEWTE-OH; disulfide 5-14; N-terminus and C-terminus assumed)	did not inhibit	inhibition						12000					
